This is an account of results in patent US20250126968A1, “Light-Emitting Device” (Semiconductor Energy Laboratory Co., Ltd., priority 2023, published 2025).

This data set can be described thus: Solubility test of PrdP2Phen by LC-MS analysis. Type of data set: physicochemical. To be noted: 1 mg in 1 mL of water, ultrasonic waves 5 minutes, membrane-filtered, filtrate analysed by LC-MS; one atmosphere, room temperature. As for the experimental part: Next, a solubility test of PrdP2Phen was performed. Note that the solubility test was conducted at a pressure of one atmosphere at room temperature (RT).
In the LC-MS analysis, liquid chromatography (LC) separation was carried out with ACQUITY UPLC (Waters Corporation), and MS analysis (mass spectrometry) was carried out with Xevo G2 Tof MS (Waters Corporation). Acquity UPLC BEH C8 (2.1×100 mm, 1.7 μm) was used as a column for the LC separation. Acetonitrile was used for Mobile Phase A and a 0.1% aqueous solution of formic acid was used for Mobile Phase B. The injection amount of the sample was 5.0 μL. Note that in the analysis, the wavelength of a photodiode array detector was set to 263 nm±1 nm.
In a 5-mL sample bottle, 1 mg of PrdP2Phen was put and 1 mL of water was added thereto. This mixture was irradiated with ultrasonic waves for 5 minutes. This mixture was filtered through a membrane filter to remove the solid, and the resulting filtrate was diluted by five times with acetonitrile. The obtained solution was subjected to LC-MS analysis.

In the case of `c1cc(-c2ccc(N3CCCC3)cc2)c2ccc3c(-c4ccc(N5CCCC5)cc4)ccnc3c2n1` [PrdP2Phen, 4,7-bis[4-(1-pyrrolidinyl)phenyl]-1,10-phenanthroline], the solubility in water result is “extremely low solubility in water”.
